In PMC3914206:

Columns and labels:
Assay in all cases: KiNativ chemical proteomics profiling in HeLa and PC3 cell lysates
Assay type in all cases: binding
[1] = target: T1, selected panels of kinases in HeLa and PC3 cell lysates (Homo sapiens, UniProt Q00535); details: 10 uM, proteome PC3
T1 construct: endogenous in cells; host or cells: HeLa and PC3 cell lysates

[2] = target: T2, selected panels of kinases in HeLa and PC3 cell lysates (Homo sapiens, UniProt P12931); details: 10 uM; SRC; peptide VAIk[…]; proteome PC3; labeling site Lys1
T2 construct: endogenous in cells; host or cells: HeLa and PC3 cell lysates

[3] = target: T3, selected panels of kinases in HeLa and PC3 cell lysates (Homo sapiens, UniProt P52333); details: 10 uM; proteome HEL; peptide IADFGLAkLLPLDKDYYVVR; labeling site Activation Loop
T3 construct: endogenous in cells; host or cells: HeLa and PC3 cell lysates

[4] = target: T4, selected panels of kinases in HeLa and PC3 cell lysates (Homo sapiens, UniProt P27361); details: 10 uM, peptide DLk[…], labeling site Lys2
T4 construct: endogenous in cells; host or cells: HeLa and PC3 cell lysates

[5] = target: T5, selected panels of kinases in HeLa and PC3 cell lysates (Homo sapiens, UniProt P49841); details: 10 uM; proteome PC3; peptide DIk[…]; labeling site Lys2
T5 construct: endogenous in cells; host or cells: HeLa and PC3 cell lysates

[6] = target: T6, selected panels of kinases in HeLa and PC3 cell lysates (Homo sapiens, UniProt Q9UKI8); details: 10 uM, TLK1
T6 construct: endogenous in cells; host or cells: HeLa and PC3 cell lysates
T6 sequence (Q9UKI8 1-766): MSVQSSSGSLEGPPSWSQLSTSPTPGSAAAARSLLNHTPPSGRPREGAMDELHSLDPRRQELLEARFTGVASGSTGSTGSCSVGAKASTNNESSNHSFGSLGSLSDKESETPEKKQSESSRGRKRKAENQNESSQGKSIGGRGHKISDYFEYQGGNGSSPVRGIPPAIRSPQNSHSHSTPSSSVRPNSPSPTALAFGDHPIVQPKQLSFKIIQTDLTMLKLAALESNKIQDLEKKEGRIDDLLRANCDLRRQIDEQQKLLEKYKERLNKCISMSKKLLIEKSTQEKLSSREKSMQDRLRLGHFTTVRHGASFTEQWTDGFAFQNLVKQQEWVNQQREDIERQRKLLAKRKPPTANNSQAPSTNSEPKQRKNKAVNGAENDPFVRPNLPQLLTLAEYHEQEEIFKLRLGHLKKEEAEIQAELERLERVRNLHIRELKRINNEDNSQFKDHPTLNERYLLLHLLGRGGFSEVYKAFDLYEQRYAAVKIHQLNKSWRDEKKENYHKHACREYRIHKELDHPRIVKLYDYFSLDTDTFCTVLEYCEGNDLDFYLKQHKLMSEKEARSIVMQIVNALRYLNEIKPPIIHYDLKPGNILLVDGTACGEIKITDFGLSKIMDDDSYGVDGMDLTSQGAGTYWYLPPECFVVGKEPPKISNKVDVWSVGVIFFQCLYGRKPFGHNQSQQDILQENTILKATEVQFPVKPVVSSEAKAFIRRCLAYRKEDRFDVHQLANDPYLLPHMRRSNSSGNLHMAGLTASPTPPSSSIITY

[7] = target: T7, selected panels of kinases in HeLa and PC3 cell lysates (Homo sapiens, UniProt Q96SB4); details: 10 uM; SRPK1; peptide IIHTDIk[…]; proteome PC3; labeling site Lys2
T7 construct: endogenous in cells; host or cells: HeLa and PC3 cell lysates

[8] = target: T8, selected panels of kinases in HeLa and PC3 cell lysates (Homo sapiens, UniProt P42338); details: 10 uM; PIK3CB; peptide […]k[…]; proteome PC3; labeling site ATP
T8 construct: endogenous in cells; host or cells: HeLa and PC3 cell lysates

[9] = target: T9, selected panels of kinases in HeLa and PC3 cell lysates (Homo sapiens, UniProt P16591); details: 10 uM, peptide TSVAVk[…], labeling site Lys1
T9 construct: endogenous in cells; host or cells: HeLa and PC3 cell lysates

[10] = target: T10, selected panels of kinases in HeLa and PC3 cell lysates (Homo sapiens, UniProt P49760); details: 10 uM; proteome PC3; peptide LTHTDLk[…]; labeling site Lys2
T10 construct: endogenous in cells; host or cells: HeLa and PC3 cell lysates

[11] = target: T11, selected panels of kinases in HeLa and PC3 cell lysates (Homo sapiens, UniProt Q96GX5); details: 10 uM; proteome HEL; peptide LYAVkVVK; labeling site Lys1
T11 construct: endogenous in cells; host or cells: HeLa and PC3 cell lysates

[12] = target: T12, selected panels of kinases in HeLa and PC3 cell lysates (Homo sapiens, UniProt Q16584); details: 10 uM, peptide DLk[…], labeling site Lys2
T12 construct: endogenous in cells; host or cells: HeLa and PC3 cell lysates

[13] = target: T13, selected panels of kinases in HeLa and PC3 cell lysates (Homo sapiens, UniProt Q9Y2U5); details: 10 uM, proteome PC3, labeling site Lys1
T13 construct: endogenous in cells; host or cells: HeLa and PC3 cell lysates
T13 sequence (Q9Y2U5 1-619): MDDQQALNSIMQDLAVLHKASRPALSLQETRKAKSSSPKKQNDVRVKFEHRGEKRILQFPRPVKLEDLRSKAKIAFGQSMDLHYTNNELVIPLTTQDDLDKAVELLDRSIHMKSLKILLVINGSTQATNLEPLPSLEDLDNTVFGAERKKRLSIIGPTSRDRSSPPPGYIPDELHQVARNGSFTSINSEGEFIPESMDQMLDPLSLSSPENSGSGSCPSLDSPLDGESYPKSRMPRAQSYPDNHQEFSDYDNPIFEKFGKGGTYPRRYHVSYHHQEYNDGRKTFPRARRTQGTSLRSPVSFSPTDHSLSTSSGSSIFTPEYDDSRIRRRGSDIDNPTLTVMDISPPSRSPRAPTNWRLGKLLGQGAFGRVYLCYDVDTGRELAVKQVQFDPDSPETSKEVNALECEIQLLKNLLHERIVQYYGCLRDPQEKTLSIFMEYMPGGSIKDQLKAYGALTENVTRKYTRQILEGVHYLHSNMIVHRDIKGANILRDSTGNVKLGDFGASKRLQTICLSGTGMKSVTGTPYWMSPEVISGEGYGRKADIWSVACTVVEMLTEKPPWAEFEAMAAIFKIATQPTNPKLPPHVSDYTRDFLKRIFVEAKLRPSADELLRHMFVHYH

[14] = target: T14, selected panels of kinases in HeLa and PC3 cell lysates (Homo sapiens, UniProt Q16539); details: 10 uM
T14 construct: endogenous in cells; host or cells: HeLa and PC3 cell lysates

[15] = peptide DLkPQNLLINR, labeling site Lys2
[16] = peptide ETHEIVALkR, labeling site Lys1
[17] = peptide […]kR, labeling site Lys1
[18] = peptide YAAVkIHQLNK, proteome HEL, labeling site Lys1
[19] = peptide YAAVkIHQLNK, proteome PC3, labeling site Lys1
[20] = peptide […]k[…], proteome HEL, labeling site Lys2
[21] = peptide […]k[…], proteome PC3, labeling site Lys2
[22] = proteome HEL, peptide DLk[…], labeling site Lys2
[23] = proteome HEL, peptide QELNkTIWEVPER, labeling site Other
[24] = proteome PC3, peptide DLk[…], labeling site Lys2
[25] = proteome PC3, peptide QELNkTIWEVPER, labeling site Other

T14 sequence (Q16539 whole entry): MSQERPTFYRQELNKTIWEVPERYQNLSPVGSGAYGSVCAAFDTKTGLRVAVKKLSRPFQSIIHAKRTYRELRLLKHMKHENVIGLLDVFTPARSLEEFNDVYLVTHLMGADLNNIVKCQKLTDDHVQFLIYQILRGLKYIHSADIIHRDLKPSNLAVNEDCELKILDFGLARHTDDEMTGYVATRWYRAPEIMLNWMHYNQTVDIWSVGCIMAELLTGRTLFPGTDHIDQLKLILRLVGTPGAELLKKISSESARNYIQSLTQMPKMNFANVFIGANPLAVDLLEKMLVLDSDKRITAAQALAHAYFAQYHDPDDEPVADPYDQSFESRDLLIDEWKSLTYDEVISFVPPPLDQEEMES
T4 sequence (P27361 whole entry): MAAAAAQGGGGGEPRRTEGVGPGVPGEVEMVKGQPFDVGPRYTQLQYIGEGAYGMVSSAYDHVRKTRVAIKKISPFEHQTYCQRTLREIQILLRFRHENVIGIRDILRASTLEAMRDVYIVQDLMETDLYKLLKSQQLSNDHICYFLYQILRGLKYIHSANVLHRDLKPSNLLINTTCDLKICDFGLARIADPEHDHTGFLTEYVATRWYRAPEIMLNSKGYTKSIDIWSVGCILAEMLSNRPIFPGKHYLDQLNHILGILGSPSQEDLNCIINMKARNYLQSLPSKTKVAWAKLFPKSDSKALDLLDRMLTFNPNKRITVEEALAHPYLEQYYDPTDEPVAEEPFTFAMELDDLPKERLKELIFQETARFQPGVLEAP
T9 sequence (P16591 whole entry): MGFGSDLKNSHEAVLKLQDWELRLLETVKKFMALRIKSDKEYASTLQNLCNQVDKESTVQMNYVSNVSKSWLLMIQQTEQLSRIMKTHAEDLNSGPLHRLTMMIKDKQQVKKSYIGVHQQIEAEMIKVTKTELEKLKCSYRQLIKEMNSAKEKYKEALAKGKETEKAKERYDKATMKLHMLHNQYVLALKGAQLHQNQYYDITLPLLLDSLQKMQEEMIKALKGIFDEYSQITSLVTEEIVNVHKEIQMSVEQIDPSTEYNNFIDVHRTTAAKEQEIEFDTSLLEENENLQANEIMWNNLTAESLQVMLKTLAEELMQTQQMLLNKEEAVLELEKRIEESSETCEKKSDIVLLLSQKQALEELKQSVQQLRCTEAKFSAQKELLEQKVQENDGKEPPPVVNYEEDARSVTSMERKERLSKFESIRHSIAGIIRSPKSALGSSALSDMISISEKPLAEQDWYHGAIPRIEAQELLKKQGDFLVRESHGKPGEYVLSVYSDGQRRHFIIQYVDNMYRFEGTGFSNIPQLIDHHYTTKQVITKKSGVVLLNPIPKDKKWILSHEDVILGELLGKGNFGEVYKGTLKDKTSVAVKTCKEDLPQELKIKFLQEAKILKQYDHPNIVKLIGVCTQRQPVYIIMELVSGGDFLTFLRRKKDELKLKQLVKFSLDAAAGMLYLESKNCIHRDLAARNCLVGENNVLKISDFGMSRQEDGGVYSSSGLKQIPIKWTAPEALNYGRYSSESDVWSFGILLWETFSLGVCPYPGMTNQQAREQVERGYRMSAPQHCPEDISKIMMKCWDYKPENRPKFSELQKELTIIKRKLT
T12 sequence (Q16584 whole entry): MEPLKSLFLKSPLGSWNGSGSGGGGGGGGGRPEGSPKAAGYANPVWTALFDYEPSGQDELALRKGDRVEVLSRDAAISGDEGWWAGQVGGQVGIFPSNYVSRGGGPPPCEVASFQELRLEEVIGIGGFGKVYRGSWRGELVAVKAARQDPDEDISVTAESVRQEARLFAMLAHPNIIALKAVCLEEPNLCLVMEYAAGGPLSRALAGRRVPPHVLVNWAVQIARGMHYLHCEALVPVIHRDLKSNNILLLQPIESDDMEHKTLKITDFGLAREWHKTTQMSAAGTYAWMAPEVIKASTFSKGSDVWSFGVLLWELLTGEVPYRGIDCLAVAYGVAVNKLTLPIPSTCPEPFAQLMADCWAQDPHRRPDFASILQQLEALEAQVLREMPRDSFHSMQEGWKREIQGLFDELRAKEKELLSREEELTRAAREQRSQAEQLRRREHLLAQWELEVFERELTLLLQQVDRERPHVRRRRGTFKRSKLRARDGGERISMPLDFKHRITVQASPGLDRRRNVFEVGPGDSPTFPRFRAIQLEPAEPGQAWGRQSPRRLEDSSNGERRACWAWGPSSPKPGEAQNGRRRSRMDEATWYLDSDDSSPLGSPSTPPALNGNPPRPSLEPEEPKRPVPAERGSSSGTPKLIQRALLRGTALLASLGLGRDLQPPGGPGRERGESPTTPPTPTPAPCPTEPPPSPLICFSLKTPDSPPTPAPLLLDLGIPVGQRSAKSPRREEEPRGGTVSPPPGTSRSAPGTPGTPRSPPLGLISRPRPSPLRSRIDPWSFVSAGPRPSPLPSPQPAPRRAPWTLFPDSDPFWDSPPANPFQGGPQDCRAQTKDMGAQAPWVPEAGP
T1 sequence (Q00535 whole entry): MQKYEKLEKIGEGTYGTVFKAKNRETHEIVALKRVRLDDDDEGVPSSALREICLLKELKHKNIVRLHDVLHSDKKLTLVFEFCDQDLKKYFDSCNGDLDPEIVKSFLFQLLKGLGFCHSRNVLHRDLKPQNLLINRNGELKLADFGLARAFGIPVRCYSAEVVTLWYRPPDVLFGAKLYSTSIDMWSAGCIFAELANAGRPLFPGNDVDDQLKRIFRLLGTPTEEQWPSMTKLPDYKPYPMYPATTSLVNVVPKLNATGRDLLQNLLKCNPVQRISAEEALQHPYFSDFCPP
T11 sequence (Q96GX5 whole entry): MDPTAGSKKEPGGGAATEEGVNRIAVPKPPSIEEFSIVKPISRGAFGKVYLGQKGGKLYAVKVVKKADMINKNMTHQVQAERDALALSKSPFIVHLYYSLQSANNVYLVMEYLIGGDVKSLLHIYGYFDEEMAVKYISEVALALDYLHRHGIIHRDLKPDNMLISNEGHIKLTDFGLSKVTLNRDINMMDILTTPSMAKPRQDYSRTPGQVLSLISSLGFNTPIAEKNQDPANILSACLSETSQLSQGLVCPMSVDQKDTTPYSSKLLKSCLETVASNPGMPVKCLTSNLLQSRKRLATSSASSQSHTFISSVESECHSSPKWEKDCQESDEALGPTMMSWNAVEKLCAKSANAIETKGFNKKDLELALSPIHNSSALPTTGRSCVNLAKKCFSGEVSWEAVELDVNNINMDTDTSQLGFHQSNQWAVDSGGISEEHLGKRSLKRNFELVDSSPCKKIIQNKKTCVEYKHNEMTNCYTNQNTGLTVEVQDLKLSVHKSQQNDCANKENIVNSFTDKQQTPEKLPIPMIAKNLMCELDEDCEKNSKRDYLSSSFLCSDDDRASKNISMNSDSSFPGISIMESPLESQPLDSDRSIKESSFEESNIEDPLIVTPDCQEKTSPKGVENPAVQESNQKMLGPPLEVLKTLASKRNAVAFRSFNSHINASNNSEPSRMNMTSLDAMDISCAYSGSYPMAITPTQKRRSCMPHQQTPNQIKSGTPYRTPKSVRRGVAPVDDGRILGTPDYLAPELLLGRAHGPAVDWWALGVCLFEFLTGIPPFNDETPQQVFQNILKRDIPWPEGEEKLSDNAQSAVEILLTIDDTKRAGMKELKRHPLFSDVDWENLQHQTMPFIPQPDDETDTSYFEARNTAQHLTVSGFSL
T2 sequence (P12931 whole entry): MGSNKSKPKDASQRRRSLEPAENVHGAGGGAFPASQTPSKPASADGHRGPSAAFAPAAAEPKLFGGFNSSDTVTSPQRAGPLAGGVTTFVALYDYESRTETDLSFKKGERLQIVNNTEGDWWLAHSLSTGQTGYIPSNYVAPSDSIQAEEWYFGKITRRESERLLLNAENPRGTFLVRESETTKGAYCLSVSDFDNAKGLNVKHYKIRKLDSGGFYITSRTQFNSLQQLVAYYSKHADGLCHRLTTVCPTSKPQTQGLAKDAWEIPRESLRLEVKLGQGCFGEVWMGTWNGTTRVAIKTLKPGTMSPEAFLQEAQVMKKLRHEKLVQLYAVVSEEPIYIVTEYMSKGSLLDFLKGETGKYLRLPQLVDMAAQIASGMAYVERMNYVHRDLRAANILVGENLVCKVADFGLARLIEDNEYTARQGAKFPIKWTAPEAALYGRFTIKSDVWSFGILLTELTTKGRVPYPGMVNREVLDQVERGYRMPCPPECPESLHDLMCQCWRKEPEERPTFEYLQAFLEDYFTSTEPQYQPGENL
T7 sequence (Q96SB4 whole entry): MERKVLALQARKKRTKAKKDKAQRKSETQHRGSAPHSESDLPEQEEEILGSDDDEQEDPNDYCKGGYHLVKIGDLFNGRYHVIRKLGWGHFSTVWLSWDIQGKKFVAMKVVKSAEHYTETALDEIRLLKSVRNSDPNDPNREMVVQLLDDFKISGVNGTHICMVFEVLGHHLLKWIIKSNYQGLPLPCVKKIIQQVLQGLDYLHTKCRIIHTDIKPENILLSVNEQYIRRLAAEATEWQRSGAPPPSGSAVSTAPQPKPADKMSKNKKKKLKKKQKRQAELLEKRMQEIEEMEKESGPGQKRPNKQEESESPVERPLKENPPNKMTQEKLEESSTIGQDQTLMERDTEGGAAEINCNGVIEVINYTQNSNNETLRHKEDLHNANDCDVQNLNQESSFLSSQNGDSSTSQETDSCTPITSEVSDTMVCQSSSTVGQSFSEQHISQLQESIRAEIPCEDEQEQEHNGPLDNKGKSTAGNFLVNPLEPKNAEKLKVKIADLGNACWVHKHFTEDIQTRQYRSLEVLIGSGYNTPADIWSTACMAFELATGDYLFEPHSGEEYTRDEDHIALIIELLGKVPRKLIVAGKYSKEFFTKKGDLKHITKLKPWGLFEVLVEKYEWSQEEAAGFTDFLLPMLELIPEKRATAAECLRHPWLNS

Compound	% Inhibiton, CDK5 [1, 15] [%]	% Inhibiton, CDK5 [1, 16] [%]	% Inhibiton, CDK5 [1, 17] [%]	% Inhibition SRC [2] [%]	% Inhibiton, JAK3 domain2 [3] [%]	% Inhibiton, Erk1 ([4]; proteome HEL) [%]	% Inhibiton, Erk1 ([4]; proteome PC3) [%]	% Inhibiton, GSK3B [5] [%]	% Inhibition TLK1 [6, 18] [%]	% Inhibition TLK1 [6, 19] [%]	% Inhibition TLK1 [6, 20] [%]	% Inhibition TLK1 [6, 21] [%]	% Inhibition SRPK1 [7] [%]	% Inhibition PIK3CB [8] [%]	% Inhibiton, FER ([9]; proteome HEL) [%]	% Inhibiton, FER ([9]; proteome PC3) [%]	% Inhibiton, CLK2 [10] [%]	% Inhibiton, MASTL [11] [%]	% Inhibiton, MLK3 ([12]; proteome HEL) [%]	% Inhibiton, MLK3 ([12]; proteome PC3) [%]	other results
COc1cc(C(=O)N2CCC(N3CCN(C)CC3)CC2)ccc1Nc1ncc2c(n1)N(C1CCCC1)c1ccccc1C(=O)N2C [Compound 25, 11-cyclopentyl-2-((2-methoxy-4-(4-(4-methylpiperazin-1-yl)piperidine-1-carbonyl)phenyl)amino)-5-methyl-5H-benzo[e]pyrimido[5,4-b][1,4]diazepin-6(11H)-one]	-8.6	9.7	-1.2	-3.4	31.8	20.3	8.4	4.6	-21.7	-9.7	-8.4	-12.2	-29.3	0.8	21.3	28.9	-17.0	14.5	3.1	4.4	% Inhibiton, MAP3K2 ([13]; peptide ELAVk[…]): 15.5%; % Inhibiton, MAP3K2 ([13]; peptide […]k[…]): 23.7%; % Inhibiton, p38a [14, 22]: 6.5%; % Inhibiton, p38a [14, 23]: 12.6%; % Inhibiton, p38a [14, 24]: 42.4%; % Inhibiton, p38a [14, 25]: -7.5%
CCOc1cc(C(=O)N2CCC(N3CCN(C)CC3)CC2)ccc1Nc1ncc2c(n1)N(C1CCCC1)c1ccccc1C(=O)N2C [Compound 26]	-4.7	-6.5	11.7	13.8	~53.9	-1.3	-0.2	-3	35.7	6.2	3.6	6.8	-25	-124.1	24.7	12	9.1	5.9	-12.1	11.9	% Inhibiton, MAP3K2 ([13]; peptide ELAVk[…]): -11.2%; % Inhibiton, MAP3K2 ([13]; peptide […]k[…]): -12.3%; % Inhibiton, p38a [14, 22]: -7.3%; % Inhibiton, p38a [14, 23]: 55%; % Inhibiton, p38a [14, 24]: 4.6%; % Inhibiton, p38a [14, 25]: -19%
